In this test the test system is HCT 116 cells transfected with a luciferase reporter under the control of an HIF-responsive sequence. Kind of test: HIF-luciferase assay. Format: cell-based. The following applies: Homo sapiens; HCT 116 HIF-luciferase reporter cells, hypoxia chamber (1% O2), 24 h; in some cases means of up to four individual determinations. The protocol: HCT 116 cells were transfected in a stable manner with a plasmid which contained a luciferase reporter under the control of an HIF-responsive sequence. These cells were sown in microtitre plates [20 000 cells/cavity in RPMI 1640 medium with 10% foetal calf serum (FCS) and 100 μg/ml of hygromycin]. Incubation was carried out overnight under standard conditions (5% CO2, 21% O2, 37° C., moistened). The following morning the cells were incubated with various concentrations of the test substances (0-10 μmol/l) in a hypoxia chamber (1% O2). After 24 h, Bright Glo reagent (Promega, Wisconsin, USA) was added in accordance with the manufacturer's instructions, and after 5 min the luminescence was measured. Cells which were incubated under normoxia served as background controls.
The IC50 values from this assay for representative working examples are listed in the following table (in same cases as means of up to four individual determinations): […]
(In a reporter assay the amount or activity of a reporter protein is the signal.)
As a reminder, the IC50 is the concentration at which inhibition is half-maximal. Compound `CCNc1ccc(Cn2nc(/C(F)=C/c3ccc(C(O)(C(F)(F)F)C(F)(F)F)cc3)cc2C)cn1` [Example 97, 2-{4-[(Z)-2-(1-{[6-(Ethylamino)pyridin-3-yl]methyl}-5-methyl-1H-pyrazol-3-yl)-2-fluorovinyl]-phenyl}-1,1,1,3,3,3-hexafluoropropan-2-ol] yielded an IC50 of 20 nM.

Turning to `Cc1cc(/C(F)=C/c2ccc(OC(F)(F)F)cc2)nn1Cc1cccc(N2CC(O)C2)c1` [Example 15, 1-{3-[(3-{(Z)-1-Fluoro-2-[4-(trifluoromethoxy)phenyl]vinyl}-5-methyl-1H-pyrazol-1-yl)methyl]phenyl}azetidin-3-ol], half-maximal inhibition (IC50) was put at 2 nM.

Turning to `CCNc1ccc(Cn2nc(/C(F)=C/c3ccc(C(C)(C)C(F)(F)F)cc3)cc2C)cn1` [Example 96, N-Ethyl-5-[(3-{(Z)-1-fluoro-2-[4-(1,1,1-trifluoro-2-methylpropan-2-yl)phenyl]vinyl}-5-methyl-1H-pyrazol-1-yl)methyl]pyridine-2-amine], the IC50 came to 1 nM. Against the preceding compound, the IC50 is about 2-fold lower.

Compound `CNc1ccc(Cn2nc(/C(F)=C/c3ccc(C(C)C)cc3)cc2C)cn1` [Example 89, 5-({3-[(Z)-1-Fluoro-2-(4-isopropylphenyl)vinyl]-5-methyl-1H-pyrazol-1-yl}methyl)-N-methyl-pyridine-2-amine] came in with an IC50 of 2 nM.

As to `CNc1ccc(Cn2nc(/C(F)=C/c3ccc(OC(F)(F)F)c(Cl)c3)cc2C)cn1` [Example 81, 5-[(3-{(Z)-2-[3-Chloro-4-(trifluoromethoxy)phenyl]-1-fluorovinyl}-5-methyl-1H-pyrazol-1-yl)-methyl]-N-methylpyridine-2-amine], the IC50 came to 3 nM.

In turn, `Cc1ccc(Cn2nc(/C(F)=C/c3ccc(OC(F)(F)F)cc3)cc2C)cc1` [Example 2, 3-{(Z)-1-Fluoro-2-[4-(trifluoromethoxy)phenyl]vinyl}-5-methyl-1-(4-methylbenzyl)-1H-pyrazole] yielded an IC50 of 30 nM.

`Cc1cc(/C(F)=C/c2ccc(OC(F)(F)F)cc2)nn1Cc1cccc(N2CCC(C#N)CC2)c1` [Example 9, 1-{3-[(3-{(Z)-1-Fluoro-2-[4-(trifluoromethoxy)phenyl]vinyl}-5-methyl-1H-pyrazol-1-yl)-methyl]phenyl}piperidine-4-carbonitrile] came in with an IC50 of 0.4 nM.

`Cc1cc(/C(F)=C/c2ccc(OC(F)(F)F)cc2)nn1Cc1cccc(C(C)(C)O)c1` [Example 53, 2-{3-[(3-{(Z)-1-Fluoro-2-[4-(trifluoromethoxy)phenyl]vinyl}-5-methyl-1H-pyrazol-1-yl)methyl]-phenyl}propan-2-ol] yielded an IC50 of 4 nM.

In turn, `Cc1cc(/C(F)=C/c2ccc(SC(F)(F)F)cc2)nn1Cc1cccc(C(=O)N2CCN(C3CC3)CC2)c1` [Example 38, (4-Cyclopropylpiperazin-1-yl)[3-({3-[(Z)-1-fluoro-2-{4-[(trifluoromethyl)sulphanyl]phenyl}vinyl]-5-methyl-1H-pyrazol-1-yl}methyl)phenyl]methanone] displayed an IC50 of 4 nM. In other words, the single-digit nanomolar range.

`Cc1cc(/C(F)=C/c2ccc(C(C)(C)C(F)(F)F)cc2)nn1Cc1cccc(N2CC(O)C2)c1` [Example 16, 1-{3-[(3-{(Z)-1-Fluoro-2-[4-(1,1,1-trifluoro-2-methylpropan-2-yl)phenyl]vinyl}-5-methyl-1H-pyrazol-1-yl)methyl]phenyl}azetidin-3-ol] returned an IC50 of 0.5 nM.

`Cc1cc(/C(F)=C/c2ccc(C3(C(F)(F)F)CC3)cc2)nn1Cc1cccc(C2(O)CC2)c1` [Example 51, 1-[3-({3-[(Z)-1-Fluoro-2-{4-[1-(trifluoromethyl)cyclopropyl]phenyl}vinyl]-5-methyl-1H-pyrazol-1-yl}methyl)phenyl]cyclopropanol] showed an IC50 of 1 nM.

For `Cc1cc(/C(F)=C/c2ccc(C3(C(F)(F)F)CC3)cc2)nn1Cc1cccc(C(F)(F)CO)c1` [Example 63, 2,2-Difluoro-2-[3-({3-[(Z)-1-fluoro-2-{4-[1-(trifluoromethyl)cyclopropyl]phenyl}vinyl]-5-methyl-1H-pyrazol-1-yl}methyl)phenyl]ethanol], it took 3 nM to reach half-maximal inhibition (IC50).
